The values that follow are results of earlier work, collected in patent publication US10010703B2, “Drug device configured for wireless communication” (POP TEST ABUSE DETERRENT TECHNOLOGY LLC, priority 2014, dated 2018).

One data set concerns the target T1, progesterone receptor (Homo sapiens, UniProt P06401).
T1 sequence (P06401 1-933): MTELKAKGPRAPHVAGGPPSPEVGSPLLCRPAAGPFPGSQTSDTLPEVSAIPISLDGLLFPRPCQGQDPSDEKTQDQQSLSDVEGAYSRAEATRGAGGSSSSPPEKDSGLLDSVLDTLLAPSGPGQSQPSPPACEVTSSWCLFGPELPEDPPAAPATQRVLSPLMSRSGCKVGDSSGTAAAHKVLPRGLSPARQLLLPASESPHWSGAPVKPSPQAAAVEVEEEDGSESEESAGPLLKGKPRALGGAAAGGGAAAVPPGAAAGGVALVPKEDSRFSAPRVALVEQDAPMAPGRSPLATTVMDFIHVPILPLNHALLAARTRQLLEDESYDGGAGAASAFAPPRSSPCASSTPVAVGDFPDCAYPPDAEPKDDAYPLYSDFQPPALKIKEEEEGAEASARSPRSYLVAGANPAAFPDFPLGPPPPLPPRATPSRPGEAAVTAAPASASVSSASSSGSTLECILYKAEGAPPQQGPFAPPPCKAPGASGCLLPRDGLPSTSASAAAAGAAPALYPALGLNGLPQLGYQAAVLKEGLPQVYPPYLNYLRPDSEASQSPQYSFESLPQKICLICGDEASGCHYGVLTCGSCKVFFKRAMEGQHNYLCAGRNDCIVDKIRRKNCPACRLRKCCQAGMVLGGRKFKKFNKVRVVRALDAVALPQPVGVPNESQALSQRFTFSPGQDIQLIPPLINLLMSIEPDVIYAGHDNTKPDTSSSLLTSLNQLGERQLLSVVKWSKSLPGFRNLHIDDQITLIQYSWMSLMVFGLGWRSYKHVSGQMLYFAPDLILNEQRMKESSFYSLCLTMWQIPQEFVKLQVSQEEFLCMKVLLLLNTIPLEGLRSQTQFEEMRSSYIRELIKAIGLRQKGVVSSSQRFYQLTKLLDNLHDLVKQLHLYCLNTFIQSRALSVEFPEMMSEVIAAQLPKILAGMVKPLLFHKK

For data set [1] the following is noted: phase I and phase II clinical trials.
Another data set addresses T2, estrogen receptor (Homo sapiens, UniProt P03372).
T2 sequence (P03372 1-595): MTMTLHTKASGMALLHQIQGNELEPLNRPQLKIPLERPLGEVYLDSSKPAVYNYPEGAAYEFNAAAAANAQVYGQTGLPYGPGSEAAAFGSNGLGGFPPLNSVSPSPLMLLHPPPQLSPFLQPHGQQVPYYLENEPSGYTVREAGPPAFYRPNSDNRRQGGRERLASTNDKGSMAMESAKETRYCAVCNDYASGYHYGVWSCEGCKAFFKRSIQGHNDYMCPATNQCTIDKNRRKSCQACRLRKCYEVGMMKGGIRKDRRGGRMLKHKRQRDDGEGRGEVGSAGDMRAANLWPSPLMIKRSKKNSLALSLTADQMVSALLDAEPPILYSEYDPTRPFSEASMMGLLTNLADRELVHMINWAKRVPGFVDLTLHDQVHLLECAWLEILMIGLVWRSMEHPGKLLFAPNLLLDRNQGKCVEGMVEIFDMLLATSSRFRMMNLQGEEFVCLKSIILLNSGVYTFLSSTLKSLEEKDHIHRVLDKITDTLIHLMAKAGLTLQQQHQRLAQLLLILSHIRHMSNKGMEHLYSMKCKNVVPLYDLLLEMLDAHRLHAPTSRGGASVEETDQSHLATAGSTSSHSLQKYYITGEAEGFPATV

For the next data set, the target named is T3, glucocorticoid receptor (Homo sapiens, UniProt P04150).
T3 sequence (P04150 1-777): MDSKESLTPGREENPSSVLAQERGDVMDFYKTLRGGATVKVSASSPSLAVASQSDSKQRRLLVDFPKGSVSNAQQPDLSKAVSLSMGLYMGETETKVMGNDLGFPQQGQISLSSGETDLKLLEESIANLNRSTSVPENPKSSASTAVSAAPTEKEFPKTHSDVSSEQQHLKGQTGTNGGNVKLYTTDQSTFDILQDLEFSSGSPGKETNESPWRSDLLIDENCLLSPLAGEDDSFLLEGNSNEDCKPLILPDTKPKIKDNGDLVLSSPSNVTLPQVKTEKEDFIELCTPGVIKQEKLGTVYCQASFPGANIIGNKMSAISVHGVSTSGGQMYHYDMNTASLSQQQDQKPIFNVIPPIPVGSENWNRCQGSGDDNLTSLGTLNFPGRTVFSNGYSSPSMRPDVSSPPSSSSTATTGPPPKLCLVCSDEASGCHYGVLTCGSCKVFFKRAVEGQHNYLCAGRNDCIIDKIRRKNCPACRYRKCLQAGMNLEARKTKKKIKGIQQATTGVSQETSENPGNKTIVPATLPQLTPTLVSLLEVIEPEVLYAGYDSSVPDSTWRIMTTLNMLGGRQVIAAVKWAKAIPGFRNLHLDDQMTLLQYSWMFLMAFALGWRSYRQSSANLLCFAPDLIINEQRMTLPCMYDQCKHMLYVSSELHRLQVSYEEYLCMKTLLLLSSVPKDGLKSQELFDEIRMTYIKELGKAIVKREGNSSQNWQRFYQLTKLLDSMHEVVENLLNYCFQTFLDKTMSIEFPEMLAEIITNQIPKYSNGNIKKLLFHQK

`CC#C[C@]1(O)CC[C@H]2[C@@H]3CCC4=CC(=O)CCC4=C3[C@@H](c3ccc4c(c3)OCO4)C[C@@]21C` [ORG 34517, (11β,17β)-11-(1,3-benzodioxol-5-yl)-17-hydroxy-17-(1-propynyl) estra-4,9-dien-3-one]: the “affinity for / cross-binding to progesterone receptor” value at progesterone receptor is “without significant cross-binding”. Moreover, the “significant toxicities and side effects” value in data set [1] is on record as “none were identified”. Also, the “affinity for / cross-binding to estrogen receptor” value on estrogen receptor is reported as “without significant cross-binding”. The “glucocorticoid receptor binding affinity” value on glucocorticoid receptor is on record as “high”.
